Test results: PubChem BioAssay (NCI)
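Step 1: Grow cells in 96-well plates. Step 2: Expose to compound for 48 hours at 5 concentrations. Step 3: Interpolate endpoints linearly; if unreached, use highest concentration. At the TGI there is no net growth.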

tested on: LXFL 529 NSCLC; test: NCI-60 cell line screen, 48 h

Question: `COC(=O)/C(=N\NC(=S)NN)C(C(=O)C(=O)Nc1ccccc1C(N)=O)c1nc2ccccc2[nH]c1=O` (stereo unspecified) was tested. Which TGI did it give?
Answer: > 100 µM

Question: For `CC(=O)c1c(C)n([O-])c2cc(C)c(C)cc2[n+]1=O`, which TGI is on record?
Answer: > 100 µM

Question: Which TGI does the source give for `NC(CCSCC(F)F)C(=O)O` (stereo unspecified) here?
Answer: > 100 µM

tested on: DMS 273 small cell lung; test: NCI-60 cell line screen, 48 h

Question: `COC(=O)/C(=N\NC(=S)NN)C(C(=O)C(=O)Nc1ccccc1C(N)=O)c1nc2ccccc2[nH]c1=O` (stereo unspecified) was tested. Which TGI did it give?
Answer: > 100 µM

Question: `CC(=O)c1c(C)n([O-])c2cc(C)c(C)cc2[n+]1=O` was tested. Which TGI did it give?
Answer: > 100 µM

Question: With `NC(CCSCC(F)F)C(=O)O` (stereo unspecified) as the compound, how does the TGI read?
Answer: > 100 µM

tested on: SNB-78 CNS; test: NCI-60 cell line screen, 48 h

Question: `COC(=O)/C(=N\NC(=S)NN)C(C(=O)C(=O)Nc1ccccc1C(N)=O)c1nc2ccccc2[nH]c1=O` (stereo unspecified) was tested. Which TGI did it give?
Answer: > 100 µM

Question: Which TGI does the source give for `CC(=O)c1c(C)n([O-])c2cc(C)c(C)cc2[n+]1=O` here?
Answer: > 100 µM

Question: Which TGI does the source give for `NC(CCSCC(F)F)C(=O)O` (stereo unspecified) here?
Answer: > 100 µM

tested on: DMS 114 small cell lung; test: NCI-60 cell line screen, 48 h

Question: For `COC(=O)/C(=N\NC(=S)NN)C(C(=O)C(=O)Nc1ccccc1C(N)=O)c1nc2ccccc2[nH]c1=O` (stereo unspecified), which TGI is on record?
Answer: > 100 µM

Question: `CC(=O)c1c(C)n([O-])c2cc(C)c(C)cc2[n+]1=O` was tested. Which TGI did it give?
Answer: > 100 µM

Question: For `NC(CCSCC(F)F)C(=O)O` (stereo unspecified), which TGI is on record?
Answer: > 100 µM

tested on: M19-MEL melanoma; test: NCI-60 cell line screen, 48 h

Question: Which TGI does the source give for `COC(=O)/C(=N\NC(=S)NN)C(C(=O)C(=O)Nc1ccccc1C(N)=O)c1nc2ccccc2[nH]c1=O` (stereo unspecified) here?
Answer: > 100 µM

Question: With `CC(=O)c1c(C)n([O-])c2cc(C)c(C)cc2[n+]1=O` as the compound, how does the TGI read?
Answer: > 100 µM

Question: `NC(CCSCC(F)F)C(=O)O` (stereo unspecified) was tested. Which TGI did it give?
Answer: > 100 µM

tested on: RXF-631 renal; test: NCI-60 cell line screen, 48 h

Question: With `COC(=O)/C(=N\NC(=S)NN)C(C(=O)C(=O)Nc1ccccc1C(N)=O)c1nc2ccccc2[nH]c1=O` (stereo unspecified) as the compound, how does the TGI read?
Answer: > 100 µM

Question: For `CC(=O)c1c(C)n([O-])c2cc(C)c(C)cc2[n+]1=O`, which TGI is on record?
Answer: > 100 µM

Question: With `NC(CCSCC(F)F)C(=O)O` (stereo unspecified) as the compound, how does the TGI read?
Answer: > 100 µM

tested on: XF 498 CNS; test: NCI-60 cell line screen, 48 h

Question: Which TGI does the source give for `COC(=O)/C(=N\NC(=S)NN)C(C(=O)C(=O)Nc1ccccc1C(N)=O)c1nc2ccccc2[nH]c1=O` (stereo unspecified) here?
Answer: > 100 µM

Question: Which TGI does the source give for `CC(=O)c1c(C)n([O-])c2cc(C)c(C)cc2[n+]1=O` here?
Answer: > 100 µM

Question: `NC(CCSCC(F)F)C(=O)O` (stereo unspecified) was tested. Which TGI did it give?
Answer: > 100 µM
